# From the SangsterLogP compilation
# Assay: method code SF-AS, from DOI: 10.1002/ardp.19903230114, PMID: 2334269
# Details: pH 7.4
row,logD,SMILES
1,2,CCCCN1CCOC(OCC)(c2ccccc2)C1 (configuration not stated)
2,1.95,CC(C)COC1(c2ccccc2)CN2CCCCC2CO1 (configuration not stated)
3,1.91,CCCOC1(c2ccccc2)CN(C)C2CCCCC2O1 (configuration not stated)
4,1.92,CCCOC1(c2ccccc2)CN2CCCCC2CO1 (configuration not stated)
5,1.95,c1ccc(COC2(c3ccccc3)CN3CCCCC3CO2)cc1 (configuration not stated)
6,2.03,CCCCN1CCOC(OCCC)(c2ccccc2)C1 (configuration not stated)
7,1.94,CCCCOC1(c2ccccc2)CN2CCCCC2CO1 (configuration not stated)
8,1.87,CCOC1(c2ccccc2)CN2CCCCC2CO1 (configuration not stated)
9,2.05,CCCCCOC1(c2ccccc2)CN(C)C2CCCCC2O1 (configuration not stated)
10,2.13,CCCCOC1(c2ccccc2)CN(CCCC)CCO1 (configuration not stated)

row,SMILES,logD
1,OC1(c2ccccc2)CN2CCCCC2CO1 (configuration not stated),1.77
2,CN1CC(O)(c2ccccc2)OC2CCCCC21 (configuration not stated),1.81
